Measurements from ChEMBL document CHEMBL4602652, “Development of cyclic peptide derivatives from the N-terminal region of LANA for targeting the nucleosome acidic patch” (Bioorg Med Chem Lett, 2020).
Calls of active or inactive are those of the source. The calls are words filed in the database; no cut-off is given here. Peptide text beside a SMILES is read from it.

What was measured:
[1] = species: Homo sapiens; experiment: Inhibition of FITC-labelled LANA (1 to 23 residues) binding to recombinant human H2A/H2B harboring acidic patch at by fluorescence polarization assay
[2] = species: Homo sapiens; experiment: Inhibition of FITC-labelled LANA (1 to 23 residues) binding to recombinant human H2A/H2B harboring acidic patch at 100 uM by fluorescence polarization assay relative to control
[3] = (§1) Inhibition of FITC-labelled LANA peptide (1 to 23 residues) binding to human HeLa mononucleosomes by fluorescence polarization assay
[4] = tested on: HeLa; experiment: as §1

Compound	inhibition [1]	also measured
Ac-PGMRLRSGRSRGA-NH2	Active	
Ac-PGMRLRSGRSTGA-NH2		inhibition [2]: 40%
Ac-PGIRLRSGRSTGA-NH2	Active	
CSCC[C@@H]1NC(=O)[C@H]([C@@H](C)O)NC(=O)[C@H](CO)NC(=O)[C@H](CCCNC(=N)N)NC(=O)CNC(=O)[C@H](CO)NC(=O)[C@H](CCCNC(=N)N)NC(=O)[C@H](CC(C)C)NC(=O)[C@H](CCCNC(=N)N)NC1=O (cyclo(GRSTMRLRS))	Active	
CSCC[C@@H]1NC(=O)CNC(=O)CNC(=O)[C@H]([C@@H](C)O)NC(=O)[C@H](CO)NC(=O)[C@H](CCCNC(=N)N)NC(=O)CNC(=O)[C@H](CO)NC(=O)[C@H](CCCNC(=N)N)NC(=O)[C@H](CC(C)C)NC(=O)[C@H](CCCNC(=N)N)NC1=O (cyclo(GGMRLRSGRST))		inhibition [2]: 100%; IC50 [3]: 204 nM; Ki [3]: 61 nM; inhibition [4]: Dose-dependent effect
Ac-PGMRLRSGRSHGA-NH2	Active	
Ac-PGMRLRSGRSKGA-NH2	Active	
CSCC[C@@H]1NC(=O)CNC(=O)[C@@H]2CCCN2C(=O)[C@H](C)NC(=O)CNC(=O)[C@H]([C@@H](C)O)NC(=O)[C@H](CO)NC(=O)[C@H](CCCNC(=N)N)NC(=O)CNC(=O)[C@H](CO)NC(=O)[C@H](CCCNC(=N)N)NC(=O)[C@H](CC(C)C)NC(=O)[C@H](CCCNC(=N)N)NC1=O (cyclo(APGMRLRSGRSTG))	Active	
Ac-MRLRSGRST-NH2	Active	
Ac-PGVRLRSGRSTGA-NH2	Active	
Ac-PGLRLRSGRSTGA-NH2	Active	
Ac-PGFRLRSGRSTGA-NH2	Active	
Ac-GMRLRSGRSTG-NH2	Active	IC50 [3]: 614 nM; inhibition [4]: Dose-dependent effect
